From US12576051B2, “Methods and composition for treating respiratory obstructive diseases” (The Regents of the University of California, priority 2019, dated 2026)

Key:
porcine airway = test: Ex vivo porcine airway models (summary statement)
Source text: Abnormal mucus accumulation in airways has deleterious, and fatal consequence in patients suffering from respiratory obstructive diseases, such as cystic fibrosis (CF), COPD and asthma. Therefore, there is a need for therapies aimed at decreasing mucus accumulation to facilitate airway mucus clearance.

[1] = system: mucin extracted from porcine guts; test: Effects of cysteamine at nM concentrations on mucin extracted from porcine guts; format: biochemical; conditions: FIG. 11
Source text: FIG. 11 showing the effects of cysteamine at nM concentrations, on mucin extracted from porcine guts.

[2] = system: porcine gastric mucin extract (50 kDa band matched to Muc5ac mucin); test: Mucolytic activity on gastric mucin (electrophoresis, Coomassie stain); format: biochemical; conditions: summary of FIG. 7 and FIG. 8
Method: FIG. 7 presents the effects of cysteamine bitartrate and compound 646 on porcine gastric mucin extract. One hundred microliters of gastric mucin extract (5 mg/mL) was incubated with and without cysteamine bitartrate and compound 646 separately, at 37° C. for 60 minutes.
Gastric Mucin extract solution: Mucin was prepared as stock solution of 5 mg/mL in water, in NaCl Ringer (150 mM Na^+, 4.6 mM K^+, 1 mM Ca^2+, 1 mM Mg^2+, 150 mM Cl^−, 2.5 mM PO4^x− and 10 mM glucose) pH 7.2, and in HCO3-Ringer solution (150 mM Na^+, 4.6 mM K^+, 1 mM Ca^2+, 1 mM Mg^2+, […] HCO3^−, 2.5 mM PO4^x− and 10 mM glucose) pH 8.
(§1) Mucolytic activity on gastric mucin. One hundred microliters of mucin solution were incubated with Cysteamine bitartrate or compound 646 at final concentrations from 0 to 2 mM as indicated in the text. Mixture was incubated at 37° C. for 0-1 hr. Mucolytic activity was ended with 30 microliters of SDS-sample buffer solution. Forty-five microliters of each sample/well were separated in an electrophoresis gel 4-12% Tris-Glycine. After electrophoresis gels were stained with Coomassie Blue solution.
In vitro mucolytic activity of cysteamine bitartrate and compound 646. To evaluate the mucolytic activity of cysteamine bitartrate and 2-aminoethane-1-d-1-thiol hydrochloride (Compound 646), gastric mucin extract was used as a substrate that was treated with 200 and 400 μM of cysteamine bitartrate or Compound 646 respectively.
Mass spectrometry analysis of the isolated 50 kDa protein band. Muc5ac and Muc6 mucins are two major secretory mucins found in the stomach. In order identify which of these mucins were part of the 50 kDa band, mass spectrometry was utilized. Mass spectrometry analysis of the 50 kDa protein band identified 17 unique peptides that matched with porcine Muc5ac mucin.

porcine airway mucus = test: Mucolytic activity on porcine airway mucin (electrophoresis, Coomassie stain); format: biochemical; conditions: summary of FIG. 10
Method: FIG. 9 presents the effect of compound 646 on porcine airway mucus. Mucus collected from porcine upper airways diluted in NaHCO3-Ringer, was treated with different concentrations of compound 646 (0, 0.25. 0.5 and 1 mM), for 60 minutes at 37° C. In lane 1, representative protein pattern after electrophoresis protein separation of untreated porcine airway mucus (40 μg/well).
Airway mucus supernatant diluted in NaHCO3-Ringer was treated with or without cysteamine bitartrate under basic and acidic conditions at 37° C. for 60 minutes.
(§2) Biological specimens: Isolated native porcine airways were used as experimental model. Sections of open trachea tissue (approx. 2 cm^2) were carefully rinsed and cover small volume of NaHCO3-Ringer solution. Mucus secretion was stimulated with Prostaglandin E2 (PGE2, 10−6 M). Secreted mucus over the dissected open airways was carefully collected, aliquoted and immediately frozen at −80° C.
as §1, with “porcine airway mucin:” for “gastric mucin.”, “collected porcine airway supernatant was” for “mucin solution were”, “text.” for “text. Mixture was incubated at 37° C. for 0-1 hr.”, “45” for “Forty-five”
Mucolytic activity of synthetic compound 646. Respiratory airway mucus contained Muc5aC and Muc5B mucins. In order to determine whether compound 646 be used as a mucolytic agent for respiratory airways, supernatant of mucus collected from porcine airways was treated with compound 646 at different concentration (0-1 mM) for 1 h at 37° C.
Mucolytic activity of cysteamine bitartrate under basic and acidic conditions. To validate whether mucolytic activity of cysteamine bitartrate depends on changes of pH, airway mucus supernatant was incubated for 1 h at 37° C. with or without 2 mM cysteamine bitartrate diluted in NaHCO3. An additional airway mucus sample was treated with cysteamine bitartrate and supplemented with 4 μL of 0.1 N of acetic solution pH 4.5. […] The reduction, however, was approximately half of the decrease seen under acidic conditions.

[3] = system: mucin released over the luminal airway surface; test: Mucin clearance on surface airway epithelium of isolated porcine airways (histology); conditions: 200 μM, 5 min, after bicarbonate (25 mM) and PGE2 (10 μM) 5 min at 37° C.
Method: Cysteamine facilitates clearance of mucin released over the luminal airway surface. Porcine airways were incubated in the presence of buffer containing bicarbonate (25 mM) and PGE2 (10 μM) for 5 min at 37° C. Thereafter, airways were subsequently incubated in the presence or absence of Cysteamine (200 μM) for an additional 5 min. Airways, were harvested and processed for histological analysis.
as §2

Porcine mucin 15% (W/V) = test: Mucolytic activity: mucin viscosity by volume displaced through Pasteur pipette; format: biochemical; conditions: 10 mg/mL, Ringer buffer with bicarbonate (25 mM), 4 hours at 37° C.; versus without cysteamine
Method: Porcine mucin 15% (W/V) was incubated in Ringer buffer solution containing bicarbonate (25 mM) in the presence (+) or absence (−) of Cysteamine bitartrate (10 mg/mL), for 4 h at 37° C. Thereafter, equal volume of mucin solution from each condition were aspirated separately in a sterile Pasteur pipette. Changes in mucin viscosity was measured by the rapidity of the volume displaced toward the bottom of the pipette, as indicated in each panel (0-12 seconds). […] Porcine mucin 15% (W/V) was incubated in Ringer buffer solution containing bicarbonate (25 mM) in the presence (+) or absence (−) of cysteamine bitartrate (10 mg/mL), for 4 hours at 37° C. Changes in mucin viscosity was determined by the percentage of volume displaced as a function of time (0-12 seconds) through a vertical sterile Pasteur pipette tip at room temperature.

NCCS [Cysteamine bitartrate, reference compound]
accumulation of viscous mucus and mucociliary clearance (porcine airway): prevented accumulation of viscous mucus and improves mucociliary clearance
dose dependence of mucolytic effect [1]: dose dependent
anti-mucin effect against gastric mucin, Muc5ac in particular [2]: anti-mucin effect against gastric mucin
influence of acidic conditions on mucolytic effect (porcine airway mucus): enhanced when acidic conditions are used
mucin clearance on airway surface epithelium [3]: cleared from the luminal surface
displaced volume percentage of porcine mucin as a function of time (0-12 seconds) (Porcine mucin 15% (W/V)): noticeably reduced
